Where two headings read alike, the source gives them in different places. Where a SMILES comes first, the peptide text is derived from it.
Columns and labels:
[1] = test system: P. aeruginosa; experiment: microbe, parasite or virus in culture; type: cell-based, Pseudomonas aeruginosa
In short: (§1)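 Peptides were serially diluted twofold in Mueller-Hinton medium and combined 1:1 with bacterial suspensions prepared at 2×10^6 CFU. Readout was the minimal inhibitory concentration, i.e. the lowest concentration with no growth.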

[2] = test system: MDRAB 12035; experiment: MIC of antibiotic during combined treatment with antimicrobial peptide; type: cell-based, Acinetobacter baumannii
In short: (§2)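 Antibiotic MIC came from antibiotic dilutions added to bacteria (2×10^6 CFU/ml, MH medium) already combined with peptide serially diluted 2:1 from its own MIC. Swapping the roles of the two agents gave the peptide MIC.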

[3] = test system: A. baumannii; experiment: as above; type: cell-based, Acinetobacter baumannii; details: for Antibiotic MIC, Erythromycin / Antibiotic MIC, Linezolid / Antibiotic MIC, Vancomycin: A. baumannii
In short: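 Antibiotic diluted in MH medium, dispensed per well with peptide; setup repeated with roles reversed; MIC read per combination.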

[4] = test system: S. epidermidis; experiment: microbe, parasite or virus in culture; type: cell-based, Staphylococcus epidermidis
In short: as §1

[5] = test system: MDREC 1229; experiment: MIC of antibiotic during combined treatment with antimicrobial peptide; type: cell-based, Escherichia coli
In short: as §2

[6] = test system: MDRAB 12036; type: cell-based, Acinetobacter baumannii
In short: as §1

[7] = test system: MDRST 8009; type: cell-based, Salmonella typhimurium; details: agent alone
In short: as §1

[8] = test system: MDREC 1229; type: cell-based, Escherichia coli
In short: as §2

[9] = test system: E. coli; type: cell-based, Escherichia coli; details: E. coli
In short: as §2

[10] = test system: MDRPA 2003; type: cell-based, Pseudomonas aeruginosa
In short: as §1

[11] = test system: MDREC 1238; type: cell-based, Escherichia coli
In short: as §1

[12] = test system: A. baumannii; experiment: MIC of antimicrobial peptide during combined treatment with antibiotic; type: cell-based, Acinetobacter baumannii
In short: as §2

[13] = test system: MDRAB 12035; experiment: as above; type: cell-based, Acinetobacter baumannii
In short: as §2

[14] = peptide treatment concentration 1 μg/ml
[15] = peptide treatment concentration 2 μg/ml
[16] = peptide treatment concentration 4 μg/ml
[17] = peptide treatment concentration 6 μg/ml
[18] = peptide treatment concentration 8 μg/ml
[19] = peptide treatment concentration 16 μg/ml
[20] = peptide treatment concentration 32 μg/ml
[21] = peptide treatment concentration 64 μg/ml
[22] = combined with peptide at 1 μg/ml
[23] = combined with peptide at 2 μg/ml
[24] = combined with peptide at 4 μg/ml
[25] = combined with peptide at 6 μg/ml
[26] = combined with peptide at 8 μg/ml
[27] = combined with peptide at 16 μg/ml
[28] = combined with peptide at 32 μg/ml
[29] = combined with peptide at 64 μg/ml
[30] = with Erythromycin […] (Conc./MIC 1)
[31] = erythromycin 4 μg/ml (Conc./MIC 1/8)
[32] = erythromycin 8 μg/ml (Conc./MIC 1/4)
[33] = erythromycin 16 μg/ml (Conc./MIC 1/2)
[34] = erythromycin 32 μg/ml (Conc./MIC 1)
[35] = vancomycin 512 μg/ml (Conc./MIC 1/2)
[36] = vancomycin 1024 μg/ml (Conc./MIC 1)

CC[C@H](C)[C@H](NC(=O)[C@H](CCCCN)NC(=O)[C@H](Cc1c[nH]c2ccccc12)NC(=O)[C@@H](N)CCCNC(=N)N)C(=O)N[C@@H](Cc1ccccc1)C(=O)N[C@@H](CCCCN)C(=O)N[C@@H](CCCCN)C(=O)N[C@H](C(=O)N1CCC[C@H]1C(=O)N[C@@H](CCCCN)C(=O)N[C@@H](Cc1ccccc1)C(=O)N[C@@H](CC(C)C)C(=O)N[C@@H](Cc1c[nH]cn1)C(=O)N[C@@H](CO)C(=O)N[C@@H](C)C(=O)N[C@@H](CCCCN)C(=O)N[C@@H](CCCCN)C(=O)N[C@@H](Cc1c[nH]c2ccccc12)C(N)=O)[C@@H](C)CC [PapMA-2, RWK IFK KIP KFL HSA KKW-NH2] (H-RWKIFKKIPKFLHSAKKW-NH2; N-terminus assumed)
0 µg/mL: Erythromycin MIC during combined treatment with peptide [2, 19] | Linezolid MIC during combined treatment with peptide [2, 19] | Vancomycin MIC during combined treatment with peptide [2, 19] | Erythromycin MIC during combined treatment with peptide [2, 20] | Linezolid MIC during combined treatment with peptide [2, 20] | Vancomycin MIC during combined treatment with peptide [2, 20] | Erythromycin MIC during combined treatment with peptide [2, 21] | Linezolid MIC during combined treatment with peptide [2, 21] | Vancomycin MIC during combined treatment with peptide [2, 21] | Antibiotic MIC, Erythromycin [3, 27] | Antibiotic MIC, Linezolid [3, 27] | Antibiotic MIC, Vancomycin [3, 27] | Antibiotic MIC, Erythromycin [3, 28] | Antibiotic MIC, Linezolid [3, 28] | Antibiotic MIC, Vancomycin [3, 28] | Antibiotic MIC, Erythromycin [3, 29] | Antibiotic MIC, Linezolid [3, 29] | Antibiotic MIC, Vancomycin [3, 29] | Antibiotic MIC, Erythromycin [5, 21] | Antibiotic MIC, Linezolid [5, 21] | Antibiotic MIC, Vancomycin [5, 21] | Peptide MIC [8, 30] | Peptide MIC ([8]; with Linezolid 512 μg/ml (Conc./MIC 1)) | Peptide MIC [9, 30] | Peptide MIC ([9]; with Linezolid […] (Conc./MIC 1)) | Peptide MIC ([9]; with Vancomycin 1024 μg/ml (Conc./MIC 1)) | Peptide MIC during treatment with antibiotic [12, 34] | Peptide MIC during treatment with antibiotic ([12]; linezolid […] (Conc./MIC 1)) | Peptide MIC during treatment with antibiotic [12, 36] | Peptide MIC during treatment with erythromycin [13, 34] | Peptide MIC during treatment with linezolid ([13]; linezolid 512 μg/ml (Conc./MIC 1))
128 µg/mL: Vancomycin MIC during combined treatment with peptide [2, 16] | Antibiotic MIC, Vancomycin [3, 23] | Antibiotic MIC, Vancomycin [5, 16] | Antibiotic MIC, Vancomycin [5, 17]
0.5 µg/mL: Antibiotic MIC, Erythromycin [5, 19] | Peptide MIC during treatment with antibiotic ([12]; linezolid […] (Conc./MIC 1/2)) | Peptide MIC during treatment with antibiotic ([12]; vancomycin […] (Conc./MIC 1/4))
64 µg/mL: Linezolid MIC during combined treatment with peptide [2, 15] | Antibiotic MIC, Linezolid [3, 23] | Antibiotic MIC, Erythromycin [5, 14] | Antibiotic MIC, Linezolid [5, 15] | Antibiotic MIC, Vancomycin [5, 18] | Minimal inhibitory concentration MIC [7] | Minimal inhibitory concentration MIC [11]
1 µg/mL: Antibiotic MIC, Erythromycin [3, 25] | Peptide MIC during treatment with antibiotic [12, 33] | Peptide MIC during treatment with linezolid ([13]; linezolid […] (Conc./MIC 1/2)) | Peptide MIC during treatment with vancomycin [13, 35]
8 µg/mL: Linezolid MIC during combined treatment with peptide [2, 18] | Antibiotic MIC, Erythromycin [3, 24] | Antibiotic MIC, Linezolid [3, 26] | Antibiotic MIC, Vancomycin [3, 26] | Antibiotic MIC, Erythromycin [5, 17] | Antibiotic MIC, Linezolid [5, 19] | Antibiotic MIC, Vancomycin [5, 20]
32 µg/mL: Erythromycin MIC during combined treatment with peptide [2, 14] | Linezolid MIC during combined treatment with peptide [2, 16] | Linezolid MIC during combined treatment with peptide [2, 17] | Vancomycin MIC during combined treatment with peptide [2, 17] | Antibiotic MIC, Linezolid [3, 24] | Antibiotic MIC, Vancomycin [3, 24] | Antibiotic MIC, Erythromycin [5, 15] | Antibiotic MIC, Linezolid [5, 16] | Antibiotic MIC, Linezolid [5, 17]
16 µg/mL: Minimal inhibitory concentration MIC [1] | Erythromycin MIC during combined treatment with peptide [2, 15] | Vancomycin MIC during combined treatment with peptide [2, 18] | Antibiotic MIC, Erythromycin [3, 22] | Antibiotic MIC, Erythromycin [3, 23] | Antibiotic MIC, Linezolid [3, 25] | Antibiotic MIC, Vancomycin [3, 25] | Antibiotic MIC, Erythromycin [5, 16] | Antibiotic MIC, Linezolid [5, 18] | Antibiotic MIC, Vancomycin [5, 19] | Minimal inhibitory concentration MIC [6] | Minimal inhibitory concentration MIC [10]
4 µg/mL: Erythromycin MIC during combined treatment with peptide [2, 16] | Antibiotic MIC, Linezolid [5, 20] | Peptide MIC during treatment with antibiotic [12, 31] | Peptide MIC during treatment with antibiotic [12, 32] | Peptide MIC during treatment with antibiotic ([12]; linezolid 32 μg/ml (Conc./MIC 1/8)) | Peptide MIC during treatment with antibiotic ([12]; linezolid 64 μg/ml (Conc./MIC 1/4)) | Peptide MIC during treatment with erythromycin [13, 31] | Peptide MIC during treatment with erythromycin [13, 32] | Peptide MIC during treatment with linezolid ([13]; linezolid 64 μg/ml (Conc./MIC 1/8)) | Peptide MIC during treatment with vancomycin ([13]; vancomycin […] (Conc./MIC 1/8))
>128 µg/mL: Linezolid MIC during combined treatment with peptide [2, 14] | Vancomycin MIC during combined treatment with peptide [2, 14] | Vancomycin MIC during combined treatment with peptide [2, 15] | Antibiotic MIC, Linezolid [3, 22] | Antibiotic MIC, Vancomycin [3, 22] | Minimal inhibitory concentration MIC [4] | Antibiotic MIC, Linezolid [5, 14] | Antibiotic MIC, Vancomycin [5, 14] | Antibiotic MIC, Vancomycin [5, 15]
0.125 µg/mL: Antibiotic MIC, Erythromycin [3, 26] | Antibiotic MIC, Erythromycin [5, 20]
higher level than the PapMA-1 peptide: Synergistic effect of antibacterial activity with existing antibiotics compared with PapMA-1 ([3]; A. baumannii and MDRAB 12035)
2 µg/mL: Erythromycin MIC during combined treatment with peptide [2, 17] | Antibiotic MIC, Erythromycin [5, 18] | Peptide MIC during treatment with antibiotic ([12]; vancomycin […] (Conc./MIC 1/8)) | Peptide MIC during treatment with erythromycin [13, 33] | Peptide MIC during treatment with linezolid ([13]; linezolid […] (Conc./MIC 1/4)) | Peptide MIC during treatment with vancomycin ([13]; vancomycin […] (Conc./MIC 1/4))
0.25 µg/mL: Erythromycin MIC during combined treatment with peptide [2, 18] | Peptide MIC during treatment with antibiotic [12, 35] | Peptide MIC during treatment with vancomycin [13, 36]
